# Test results taken from patent US11970474B2, “Substituted benzodiazoles and use thereof in therapy” (THOMAS HELLEDAYS STIFTELSE FÖR MEDICINSK FORSKNING, priority 2018, dated 2024).
# Target: OGG1 (Homo sapiens (Human), UniProt O15527)
# Assay: In vitro OGG1 activity assay
# Type: biochemical
# Conditions: 800 pM OGG1 enzyme, 2 nM human APEX1, 10 nM 8-oxoA:C substrate
# In short: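 Fluorescence-release assay on a duplex oligonucleotide carrying an OGG1 substrate base beside a fluorophore, quenched from the complementary strand. Excess APEX1 cleaves the abasic site left by base excision, melting the duplex and unquenching the fluorophore. Compounds in DMSO were dispensed before enzyme and substrate, and fluorescein signal was read.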
# Chain of OGG1 (O15527 whole entry): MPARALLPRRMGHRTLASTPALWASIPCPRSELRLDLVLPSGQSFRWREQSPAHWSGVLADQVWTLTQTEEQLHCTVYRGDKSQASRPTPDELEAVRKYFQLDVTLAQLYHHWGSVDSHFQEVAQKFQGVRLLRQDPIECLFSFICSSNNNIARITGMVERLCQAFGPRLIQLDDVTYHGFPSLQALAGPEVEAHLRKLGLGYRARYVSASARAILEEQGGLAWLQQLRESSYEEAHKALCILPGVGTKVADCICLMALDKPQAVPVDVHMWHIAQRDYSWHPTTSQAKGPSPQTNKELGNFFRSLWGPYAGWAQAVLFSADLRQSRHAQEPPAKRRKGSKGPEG
row,Structure (SMILES),IC50
1,"CNC(=O)c1cccc2c1[nH]c(=O)n2[C@H]1CC[C@@H](C(=O)Nc2ccc(C)c(OC)c2)CC1 [Example 259, N-Methyl-2-oxo-1-[cis-4-[(3-methoxy-4-methylphenyl)carbamoyl]cyclohexyl]-2,3-dihydro-1H-1,3-benzodiazole-4-carboxamide]",3.94 nM
2,"COc1cc(NC(=O)[C@H]2CC[C@@H](n3c(=O)[nH]c4c(C(=O)N(C)C)cccc43)CC2)ccc1C [Example 260, N,N-Dimethyl-2-oxo-1-[cis-4-[(3-methoxy-4-methylphenyl)carbamoyl]cyclohexyl]-2,3-dihydro-1H-1,3-benzodiazole-4-carboxamide]",343 nM
3,"COc1cc(NC(=O)[C@H]2CC[C@@H](n3c(=O)[nH]c4c(C(=O)N5CCNCC5)cccc43)CC2)ccc1C [Example 261, Cis-N-(3-methoxy-4-methylphenyl)-4-[2-oxo-4-(piperazine-1-carbonyl)-2,3-dihydro-1H-1,3-benzodiazol-1-yl]cyclohexane-1-carboxamide]",68.3 nM
4,"COc1cc(NC(=O)[C@H]2CC[C@@H](n3c(=O)[nH]c4c(C(=O)NCCCN)cccc43)CC2)ccc1C [Example 265, N-(3-Aminopropyl)-2-oxo-1-[cis-4-[(3-methoxy-4-methylphenyl)carbamoyl]cyclohexyl]-2,3-dihydro-1H-1,3-benzodiazole-4-carboxamide]",0.28 nM
5,"CNCCN(C)C(=O)c1cccc2c1[nH]c(=O)n2[C@H]1CC[C@@H](C(=O)Nc2ccc(C)c(OC)c2)CC1 [Example 266, N-Methyl-N-[2-(methylamino)ethyl]-2-oxo-1-[cis-4-[(3-methoxy-4-methylphenyl)carbamoyl]cyclohexyl]-2,3-dihydro-1H-1,3-benzodiazole-4-carboxamide]",8.16 nM
6,"COc1cc(NC(=O)[C@H]2CC[C@@H](n3c(=O)[nH]c4c(C(=O)N5CCN(CCN(C)C)CC5)cccc43)CC2)ccc1C [Example 275, Cis-4-(4-{4-[2-(dimethylamino)ethyl]piperazine-1-carbonyl}-2-oxo-2,3-dihydro-1H-1,3-benzodiazol-1-yl)-N-(3-methoxy-4-methylphenyl)cyclohexane-1-carboxamide]",171 nM
7,"COc1cc(NC(=O)[C@H]2CC[C@@H](n3c(=O)[nH]c4c(C(=O)N5CCCC5C(N)=O)cccc43)CC2)ccc1C (stereo partly drawn) [Example 278, 1-{2-Oxo-1-[cis-4-[(3-methoxy-4-methylphenyl)carbamoyl]cyclohexyl]-2,3-dihydro-1H-1,3-benzodiazole-4-carbonyl}pyrrolidine-2-carboxamide]",221 nM
8,"COc1cc(NC(=O)[C@H]2CC[C@@H](n3c(=O)[nH]c4c(Nc5ncccn5)cccc43)CC2)ccc1C [Example 279, Cis-N-(3-methoxy-4-methylphenyl)-4-{2-oxo-4-[(pyrimidin-2-yl)amino]-2,3-dihydro-1H-1,3-benzodiazol-1-yl}cyclohexane-1-carboxamide]",74.5 nM
9,"COc1cc(NC(=O)[C@H]2CC[C@@H](n3c(=O)[nH]c4c(NC(=O)CCN)cccc43)CC2)ccc1C [Example 284, Cis-4-[4-(3-aminopropanamido)-2-oxo-2,3-dihydro-1H-1,3-benzodiazol-1-yl]-N-(3-methoxy-4-methylphenyl)cyclohexane-1-carboxamide]",1.73 nM
10,"COc1cc(NC(=O)[C@H]2CC[C@@H](n3c(=O)[nH]c4c(NC(=O)[C@@H]5CCN5)cccc43)CC2)ccc1C [Example 287, (2S)—N-{2-Oxo-1-[cis-4-[(3-methoxy-4-methylphenyl)carbamoyl]cyclohexyl]-2,3-dihydro-1H-1,3-benzodiazol-4-yl}azetidine-2-carboxamide]",27.1 nM
11,"COc1cc(NC(=O)[C@H]2CC[C@@H](n3c(=O)[nH]c4c(NC(C)=O)cccc43)CC2)ccc1C [Example 288, Cis-4-(4-acetamido-2-oxo-2,3-dihydro-1H-1,3-benzodiazol-1-yl)-N-(3-methoxy-4-methylphenyl)cyclohexane-1-carboxamide]",23 nM
12,"CC(=O)Nc1cccc2c1[nH]c(=O)n2[C@H]1CC[C@@H](C(=O)Nc2ccc3cc[nH]c3c2)CC1 [Example 290, Cis-4-(4-acetamido-2-oxo-2,3-dihydro-1H-1,3-benzodiazol-1-yl)-N-(1H-indol-6-yl)cyclohexane-1-carboxamide]",239 nM
13,"COc1cc(NC(=O)[C@H]2CC[C@@H](n3c(=O)[nH]c4c(C(N)=O)cccc43)CC2)ccc1C [Example 291, 2-Oxo-1-[cis-4-[(3-methoxy-4-methylphenyl)carbamoyl]cyclohexyl]-2,3-dihydro-1H-1,3-benzodiazole-4-carboxamide]",9.53 nM
14,"COc1cc(NC(=O)[C@H]2CC[C@@H](n3c(=O)[nH]c4c(C(=O)NCC5COCCN5)cccc43)CC2)ccc1C (stereo partly drawn) [Example 292, N-[(Morpholin-3-yl)methyl]-2-oxo-1-[cis-4-[(3-methoxy-4-methylphenyl)carbamoyl]cyclohexyl]-2,3-dihydro-1H-1,3-benzodiazole-4-carboxamide]",0.37 nM
15,"COc1cc(NC(=O)[C@H]2CC[C@@H](n3c(=O)[nH]c4c(C(=O)NC5CNC5)cccc43)CC2)ccc1C [Example 293, N-(Azetidin-3-yl)-2-oxo-1-[cis-4-[(3-methoxy-4-methylphenyl)carbamoyl]cyclohexyl]-2,3-dihydro-1H-1,3-benzodiazole-4-carboxamide]",1.42 nM
16,"COc1cc(NC(=O)[C@H]2CC[C@@H](n3c(=O)[nH]c4c(C(=O)NC5CCNC5)cccc43)CC2)ccc1C (stereo partly drawn) [Example 294, 2-Oxo-N-(pyrrolidin-3-yl)-1-[cis-4-[(3-methoxy-4-methylphenyl)carbamoyl]cyclohexyl]-2,3-dihydro-1H-1,3-benzodiazole-4-carboxamide]",1.21 nM
17,"COc1cc(NC(=O)[C@H]2CC[C@@H](n3c(=O)[nH]c4c(N5CCC(N)CC5)cccc43)CC2)ccc1C [Example 303, Cis-4-[4-(4-aminopiperidin-1-yl)-2-oxo-2,3-dihydro-1H-1,3-benzodiazol-1-yl]-N-(3-methoxy-4-methylphenyl)cyclohexane-1-carboxamide]",10.6 nM
18,"COc1cc(NC(=O)[C@H]2CC[C@@H](n3c(=O)[nH]c4c(N5Cc6cn[nH]c6C5)cccc43)CC2)ccc1C [Example 314, Cis-N-(3-methoxy-4-methylphenyl)-4-(2-oxo-4-{1H,4H,5H,6H-pyrrolo[3,4-c]pyrazol-5-yl}-2,3-dihydro-1H-1,3-benzodiazol-1-yl)cyclohexane-1-carboxamide]",56.3 nM
19,"CC(=O)Nc1cccc2c1[nH]c(=O)n2[C@H]1CC[C@@H](C(=O)Nc2ccc3[nH]ncc3c2)CC1 [Example 315, Cis-4-(4-acetamido-2-oxo-2,3-dihydro-1H-1,3-benzodiazol-1-yl)-N-(1H-indazol-5-yl)cyclohexane-1-carboxamide]",759 nM
20,"COC(=O)NC1CCN(c2cccc3c2[nH]c(=O)n3[C@H]2CC[C@@H](C(=O)Nc3ccc(C)c(OC)c3)CC2)C1 (stereo partly drawn) [Example 316, Methyl N-(1-{2-oxo-1-[cis-4-[(3-methoxy-4-methylphenyl)carbamoyl]cyclohexyl]-2,3-dihydro-1H-1,3-benzodiazol-4-yl}pyrrolidin-3-yl)carbamate]",38 nM
21,"COc1cc(NC(=O)[C@H]2CC[C@@H](n3c(=O)[nH]c4c(N5CCC(NC(=O)C(C)(C)O)C5)cccc43)CC2)ccc1C (stereo partly drawn) [Example 317, Cis-4-{4-[3-(2-hydroxy-2-methylpropanamido)pyrrolidin-1-yl]-2-oxo-2,3-dihydro-1H-1,3-benzodiazol-1-yl}-N-(3-methoxy-4-methylphenyl)cyclohexane-1-carboxamide]",39.1 nM
22,"COc1cc(NC(=O)[C@H]2CC[C@@H](n3c(=O)[nH]c4c(NC(=O)c5nccn5C)cccc43)CC2)ccc1C [Example 318, 1-Methyl-N-{2-oxo-1-[cis-4-[(3-methoxy-4-methylphenyl)carbamoyl]cyclohexyl]-2,3-dihydro-1H-1,3-benzodiazol-4-yl}-1H-imidazole-2-carboxamide]",79.5 nM
23,"COc1cc(NC(=O)[C@H]2CC[C@@H](n3c(=O)[nH]c4c(NC(=O)c5cn(C)cn5)cccc43)CC2)ccc1C [Example 319, 1-Methyl-N-{2-oxo-1-[cis-4-[(3-methoxy-4-methylphenyl)carbamoyl]cyclohexyl]-2,3-dihydro-1H-1,3-benzodiazol-4-yl}-1H-imidazole-4-carboxamide]",20.3 nM
24,"COc1cc(NC(=O)[C@H]2CC[C@@H](n3c(=O)[nH]c4c(NC(=O)c5coc(N)n5)cccc43)CC2)ccc1C [Example 320, 2-Amino-N-{2-oxo-1-[cis-4-[(3-methoxy-4-methylphenyl)carbamoyl]cyclohexyl]-2,3-dihydro-1H-1,3-benzodiazol-4-yl}-1,3-oxazole-4-carboxamide]",22 nM
25,"COc1cc(NC(=O)[C@H]2CC[C@@H](n3c(=O)[nH]c4c(NC(=O)c5ccnn5C)cccc43)CC2)ccc1C [Example 321, 1-Methyl-N-{2-oxo-1-[cis-4-[(3-methoxy-4-methylphenyl)carbamoyl]cyclohexyl]-2,3-dihydro-1H-1,3-benzodiazol-4-yl}-1H-pyrazole-5-carboxamide]",5.75 nM
26,"O=c1[nH]c2ccccc2n1[C@H]1CC[C@@H](C(=O)Nc2ccc(F)cc2)CC1 [Example 322, Cis-N-(4-fluorophenyl)-4-(2-oxo-2,3-dihydro-1H-benzo[d]imidazol-1-yl)cyclohexanecarboxamide]",2630 nM
27,"COc1cc(NC(=O)[C@H]2CC[C@@H](n3c(=O)[nH]c4c(NCC(F)(F)F)cccc43)CC2)ccc1C [Example 323, Cis-N-(3-methoxy-4-methylphenyl)-4-{2-oxo-4-[(2,2,2-trifluoroethyl)amino]-2,3-dihydro-1H-1,3-benzodiazol-1-yl}cyclohexane-1-carboxamide]",226 nM
28,"COc1cc(NC(=O)[C@H]2CC[C@@H](n3c(=O)[nH]c4c(NCC(F)F)cccc43)CC2)ccc1C [Example 324, Cis-4-{4-[(2,2-difluoroethyl)amino]-2-oxo-2,3-dihydro-1H-1,3-benzodiazol-1-yl}-N-(3-methoxy-4-methylphenyl)cyclohexane-1-carboxamide]",96.9 nM
